Entries after “also recorded” stand apart in the source; their conditions may differ.

One assay has as its target T1, LRH-1 (Homo sapiens, UniProt O00482).
T1 construct: The transfected plasmids included full-length LRH-1 in a pCI vector; expressed in transfected cells; host or cells: HeLa
As to the kind of experiment: Luciferase reporter assay (SHP-luc) in HeLa cells transfected with full-length LRH-1. It is filed as cell-based. As to conditions: for Relative Efficacy: fold increase over baseline (DMSO-treated cells) relative to the fold increase induced by RJW100. As to the method: EC50 and Relative Activity values were calculated from luciferase reporter assays.
Background: A reporter such as luciferase makes a cellular process visible.

The next assay deals with T2, LRH-1 LBD (Homo sapiens, UniProt O00482).
T2 construct: LRH-1 LBD (residues 299-541) in the pMSC7 vector was expressed in BL21 (DE3) pLysS E. coli; made in house; host or cells: E. coli BL21 (DE3) pLysS
As to the kind of experiment: Thermofluor (DSF) assay, purified LRH-1 LBD-His protein. It is filed as binding. As to conditions: for stabilization of LRH-1-ligand complex / Tm shift: WT LRH-1; for ΔTm at 50 µM / ΔTm (mean +/− SEM) (° C.): 50 μM compound, relative to DLPC-bound LRH-1; for ΔTm at 50 µM: read-out: ΔTm (mean +/− SEM) (° C.). As for the experimental part:
Thermofluor assays—Purified LRH-1 LBD-His protein (0.2 mg/ml) was incubated overnight with 50 μM of each compound at 4° C. The final DMSO concentration in the reactions was 1%. SYPRO orange dye (Invitrogen) was then added at a 1:1000 dilution. Reactions were heated at a rate of 0.5° C. per minute, using a StepOne Plus Real Time PCR System (ThermoFisher). […] Data were analyzed by first subtracting baseline fluorescence (ligands+SYPRO with no protein) and then fitting the curves using the Bolzman equation (GraphPad Prism, v6) to determine the Tm. […]
(In general: DSF heats the sample and reads unfolding from a dye or from intrinsic fluorescence.)

The target in a further assay is H390A-LRH-1 (Homo sapiens, UniProt O00482, H390A). As to the kind of experiment: Luciferase reporter assay (SHP-luc), H390A mutant LRH-1. As to conditions: His-390 mutated to alanine.
The conditions of assay [1]: cited from earlier work.
Setting [2] is: HeLa cells, SHP-luc reporter, 24 hours, 0.03-30 μM.
Where [3] appears, read: diabetic mice fed DLPC, mouse models of insulin resistance.

T2 sequence (O00482 299-541): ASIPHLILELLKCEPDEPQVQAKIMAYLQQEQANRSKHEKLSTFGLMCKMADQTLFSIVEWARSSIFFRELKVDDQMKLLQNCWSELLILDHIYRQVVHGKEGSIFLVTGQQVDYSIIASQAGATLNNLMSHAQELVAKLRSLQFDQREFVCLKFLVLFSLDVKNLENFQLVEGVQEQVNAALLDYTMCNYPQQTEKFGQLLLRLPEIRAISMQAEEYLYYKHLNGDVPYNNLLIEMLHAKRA
T1 sequence (O00482 whole entry): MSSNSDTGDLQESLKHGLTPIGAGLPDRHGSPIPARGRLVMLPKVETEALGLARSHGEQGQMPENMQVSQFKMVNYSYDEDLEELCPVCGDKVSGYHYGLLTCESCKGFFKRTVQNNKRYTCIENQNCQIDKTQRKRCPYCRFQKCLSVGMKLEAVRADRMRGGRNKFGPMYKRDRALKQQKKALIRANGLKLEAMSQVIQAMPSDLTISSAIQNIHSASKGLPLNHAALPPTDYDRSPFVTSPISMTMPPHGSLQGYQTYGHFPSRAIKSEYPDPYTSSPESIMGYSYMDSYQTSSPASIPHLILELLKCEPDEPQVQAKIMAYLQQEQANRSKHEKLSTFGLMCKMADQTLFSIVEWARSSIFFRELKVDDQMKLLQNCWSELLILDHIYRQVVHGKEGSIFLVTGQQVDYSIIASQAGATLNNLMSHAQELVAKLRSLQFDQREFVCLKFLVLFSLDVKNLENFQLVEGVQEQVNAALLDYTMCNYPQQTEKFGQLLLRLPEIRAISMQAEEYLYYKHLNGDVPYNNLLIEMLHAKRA
H390A-LRH-1, sequence (O00482 whole entry H390A): as the sequence (O00482 whole entry) above, with H390A counted along it

One may read the EC50 as the concentration that produces a half-maximal response. A higher EC50 goes with lower potency in that assay. Turning to `CCC/C=C(\CCC)C1=C(c2ccccc2)[C@]2(Nc3ccccc3)CCC[C@@H]2C1` [GSK8470, reference compound], the “increase of LRH-1 activity compared with DMSO” value at LRH-1 (WT LRH-1, highest dose) is given as approximately 2.5 fold. Besides, the EC50 on LRH-1 (WT LRH-1, text) was approximately 4000 nM. Moreover, at LRH-1 LBD, the “stabilization of LRH-1-ligand complex / Tm shift” value is reported as “did not affect the melting profile”. Moreover, the “activation of H390A-LRH-1” value on H390A-LRH-1 is recorded as “completely unable to activate”.

Molecule `C=C(c1ccccc1)[C@@]12CC[C@@H](O)[C@@H]1CC(CCCCCCCCCOP(=O)([O-])OCC[N+](C)(C)C)=C2c1ccccc1` (relative stereo) [Compound 10g, 9-(6-exo-hydroxy-3-phenyl-3a-(1-phenylvinyl)-1,3a,4,5,6,6a-hexahydropentalen-2-yl)nonyl (2-(trimethylammonio)ethyl) phosphate] had a concentration for a half-maximal effect (EC50) on LRH-1 (setting [2]) of 2000 nM. In addition, at LRH-1, the “Relative Efficacy” value worked out at 2.74. Also, the ΔTm at 50 µM on LRH-1 LBD was less than 1 °C.

As to `C=C(c1ccccc1)C12CCC(O)C1CC(CCCC(=O)O)=C2c1ccccc1` (stereo not drawn) [Compound 5f, 4-(6-exo-hydroxy-3-phenyl-3a-(1-phenylvinyl)-1,3a,4,5,6,6a-hexahydropentalen-2-yl)butanoic acid], on LRH-1 (setting [2]), the “EC50 (μM)” value is “cnc”. In addition, at LRH-1, the “Relative Efficacy” value turned out to be 1.43. Besides, the ΔTm at 50 µM on LRH-1 LBD came out at 2.3 °C.

`C=C(c1ccccc1)[C@@]12CC[C@H](OS(C)(=O)=O)C1CC(CCCCCC)=C2c1ccccc1` (stereo partly drawn) [Compound 30-endo, (Endo or Exo) 5-hexyl-4-phenyl-3a-(1-phenylvinyl)-1,2,3,3a,6,6a-hexahydropentalen-1-yl methanesulfonate]: the 50% effective concentration (EC50) at LRH-1 (setting [2]) turned out to be 500 nM. Also, the “Relative Efficacy” value on LRH-1 was 0.72. Also, the ΔTm at 50 µM on LRH-1 LBD stood at 3 °C.

As for `C=C(c1ccccc1)C12CCC(O)C1CC(CCCCCO)=C2c1ccccc1` (stereo not drawn) [Compound 6e, Exo-5-(5-hydroxypentyl)-4-phenyl-3a-(1-phenylvinyl)-1,2,3,3a,6,6a-hexahydropentalen-1-ol], the “EC50 (μM)” value on LRH-1 (setting [2]) was “cnc”. The “Relative Efficacy” value at LRH-1 was 1.57. The ΔTm at 50 µM at LRH-1 LBD amounted to 2.4 °C.

For the molecule `C=C(c1ccccc1)[C@@]12CC[C@@H](O)[C@@H]1CC(CCCCCCCCO)=C2c1ccccc1` (relative stereo) [Compound 9e, Exo-5-(8-hydroxyoctyl)-4-phenyl-3a-(1-phenylvinyl)-1,2,3,3a,6,6a-hexahydropentalen-1-ol], a half-maximal response at LRH-1 (setting [2]) (EC50) required 700 nM. The “Relative Efficacy” value at LRH-1 is on record as 1.52. Further, on LRH-1 LBD, the ΔTm at 50 µM amounted to 4 °C.

Turning to `C=C(c1ccccc1)C12CCC(O)C1CC(CCCCCCCCCCO)=C2c1ccccc1` (stereo not drawn) [Compound 11e, Exo-5-(10-hydroxydecyl)-4-phenyl-3a-(1-phenylvinyl)-1,2,3,3a,6,6a-hexahydropentalen-1-ol], the midpoint of the response at LRH-1 (setting [2]), the EC50, lay at 2000 nM. In addition, the “Relative Efficacy” value at LRH-1 is 2.83. Further, the ΔTm at 50 µM on LRH-1 LBD was less than 1 °C.

`C=C(c1ccccc1)[C@@]12CC[C@@H](O)C1CC(CCCCCC)=C2c1cccc(N)c1` (mixture of isomers) [Compound 15g, (Exo)-4-(3-aminophenyl)-5-hexyl-3a-(1-phenylvinyl)-1,2,3,3a,6,6a-hexahydropentalen-1-ol]: the “EC50 (μM)” value at LRH-1 (setting [2]) is reported as “cnc”. Besides, the “Relative Efficacy” value on LRH-1 was found to be 0.70. The ΔTm at 50 µM on LRH-1 LBD is less than 1 °C.

Regarding `C=C(c1ccccc1)[C@@]12CC[C@@H](O)C1CC(CCCCCCCCOC(C)=O)=C2c1ccccc1` (stereo partly drawn) [Compound 47-exo, (Exo or Endo) 8-(6-hydroxy-3-phenyl-3a-(1-phenylvinyl)-1,3a,4,5,6,6a-hexahydropentalen-2-yl)octyl acetate], the midpoint of the response at LRH-1 (setting [2]), the EC50, lay at 700 nM. Also, the “Relative Efficacy” value on LRH-1 turned out to be 3.70. Also, the ΔTm at 50 µM at LRH-1 LBD worked out at 1.5 °C.

For `C=C(c1ccccc1)[C@@]12CCC(O)C1CC(CCCCCCCCOP(=O)(OCC)OCC)=C2c1ccccc1` (stereo partly drawn) [Compound 53-exo, (Endo or Exo) diethyl (8-(6-hydroxy-3-phenyl-3a-(1-phenylvinyl)-1,3a,4,5,6,6a-hexahydropentalen-2-yl)octyl)phosphate], the “Relative Efficacy” value at LRH-1 was 0.37. In addition, the “ΔTm (mean +/− SEM) (° C.)” value on LRH-1 LBD is recorded as “ns (Ns = Tm changes were less than 1° C.)”.

As to `C=C(c1ccccc1)C12CCC(N)C1CC(CCCCCC)=C2c1ccccc1` (stereo not drawn) [Compound 33-endo, (Endo or Exo)-5-hexyl-4-phenyl-3a-(1-phenylvinyl)-1,2,3,3a, 6,6a-hexahydropentalen-1-amine], at LRH-1, the “Relative Efficacy” value came to 0.56. The “ΔTm (mean +/− SEM) (° C.)” value at LRH-1 LBD is “ns (Ns = Tm changes were less than 1° C.)”.

“((((endo or exo)-5-hexyl-4-phenyl-3a-(1-phenylvinyl)-1, 2, 3, 3a, 6,6a-hexahydropentalen-1-yl)oxy)carbonyl)sulfamic acid [Compound 40-endo]” had a concentration giving a half-maximal response (EC50) on LRH-1 (setting [2]) of more than 30000 nM. For the same molecule, the “LRH-1 activation” value on LRH-1 (WT LRH-1) is “increased activation of LRH-1 compared to RJW100”. The “Relative Efficacy” value at LRH-1 is given as −0.2. For the same molecule, at LRH-1 LBD, the “ΔTm (mean +/− SEM) (° C.)” value is 1.95 +/− 0.15 °C and the “stabilization of LRH-1-ligand complex / Tm shift” value is listed as “greatly stabilized the protein-ligand complex”.

For `C=C(c1ccccc1)C12CCC(O)C1CC(CCCCCCOP(=O)([O-])OCC[N+](C)(C)C)=C2c1ccccc1` (stereo not drawn) [Compound 7g, 6-(6-exo-hydroxy-3-phenyl-3a-(1-phenylvinyl)-1,3a,4,5,6,6a-hexahydropentalen-2-yl)hexyl(2-(trimethylammonio)ethyl) phosphate], the “EC50 (μM)” value at LRH-1 (setting [2]) is on record as “cnc”. On LRH-1, the “Relative Efficacy” value amounted to 0.00. Further, the ΔTm at 50 µM at LRH-1 LBD was less than 1 °C.

As to `C=C(c1ccccc1)[C@@]12CC[C@H](N=[N+]=[N-])C1CC(CCCCCC)=C2c1ccccc1` (stereo partly drawn) [Compound 31-endo, (Endo or Exo)-5-hexyl-4-phenyl-3a-(1-phenylvinyl)-1,2,3,3a,6,6a-hexahydropentalen-1-azide], at LRH-1 (setting [2]), a half-maximal effect (EC50) was put at 5000 nM. Besides, the “Relative Efficacy” value on LRH-1 worked out at 0.70. Also, the ΔTm at 50 µM at LRH-1 LBD was less than 1 °C.

On to `C=C(c1ccccc1)[C@@]12CC[C@@H](N)C1CC(CCCCCC)=C2c1ccccc1` (stereo partly drawn) [Compound 33-exo, (Endo or Exo)-5-hexyl-4-phenyl-3a-(1-phenylvinyl)-1,2,3,3a, 6,6a-hexahydropentalen-1-amine], for which, at LRH-1, the “Relative Efficacy” value is 0.56. On LRH-1 LBD, the ΔTm at 50 µM was -3 °C.

Turning to `C=C(c1ccccc1)C12CCC(O)C1CC(CCCCCCCCCO)=C2c1ccccc1` (stereo not drawn) [Compound 10e, Exo-5-(9-hydroxynonyl)-4-phenyl-3a-(1-phenylvinyl)-1,2,3,3a,6,6a-hexahydropentalen-1-ol], the 50% effective concentration (EC50) on LRH-1 (setting [2]) was found to be 1000 nM. Moreover, the “Relative Efficacy” value on LRH-1 was determined as 1.30. For the same molecule, the ΔTm at 50 µM on LRH-1 LBD was determined as 4.1 °C.

`C=C(c1ccccc1)[C@@]12CC[C@@H](O)[C@@H]1CC(CCCCCCCCCCC(=O)O)=C2c1ccccc1` (relative stereo) [Compound 12f, 11-(6-exo-hydroxy-3-phenyl-3a-(1-phenylvinyl)-1,3a,4,5,6,6a-hexahydropentalen-2-yl)undecanoic acid] yielded a concentration for a half-maximal effect (EC50) on LRH-1 (setting [2]) of 300 nM. In addition, the “Relative Efficacy” value at LRH-1 is recorded as 1.74. In addition, the ΔTm at 50 µM at LRH-1 LBD worked out at 2.5 °C.

For the molecule `C=C(c1ccccc1)C12CCC(C#N)C1CC(CCCCCC)=C2c1ccccc1` (stereo not drawn) [Compound 32-endo, (Endo or Exo)-5-hexyl-4-phenyl-3a-(1-phenylvinyl)-1,2,3,3a,6,6a-hexahydropentalene-1-carbonitrile], the “Relative Efficacy” value at LRH-1 is given as 0. Also, the “ΔTm (mean +/− SEM) (° C.)” value at LRH-1 LBD was “ns (Ns = Tm changes were less than 1° C.)”.

With `C=C(c1ccccc1)[C@@]12CC[C@H](OC(N)=O)C1CC(CCCCCC)=C2c1ccccc1` (stereo partly drawn) [Compound 29-endo, (Endo or Exo)-5-hexyl-4-phenyl-3a-(1-phenylvinyl)-1,2,3,3a,6,6a-hexahydropentalen-1-yl carbamate], the “EC50 (μM)” value on LRH-1 (setting [2]) is reported as “cnc”. Further, the “Relative Efficacy” value on LRH-1 amounted to 0. Also, the ΔTm at 50 µM at LRH-1 LBD was 2.8 °C.

For the molecule `CCCCCCCCCCCC(=O)OC[C@H](COP(=O)([O-])OCC[N+](C)(C)C)OC(=O)CCCCCCCCCCC` [DLPC, dilauroyl-phosphatidylcholine], in assay [1] (DLPC treatment, mouse), the bile acid levels entry is listed as “increases bile acid levels”; the “hepatic triglycerides and serum glucose” value was “lowers hepatic triglycerides and serum glucose”. Also, the “circulating insulin, triglycerides, and free fatty acids” value in assay [1] (diabetic mice fed DLPC) is on record as “reduced quantities”. In assay [1] (setting [3]), the “glucose tolerance / glucose homeostasis” value is given as “improves glucose homeostasis; also recorded: improved glucose tolerance” and the “hepatic fat accumulation / hepatic steatosis” value is “decreases hepatic steatosis; also recorded: reduced hepatic fat accumulation”.

As for `C=C(c1ccccc1)[C@@]12CC[C@@H](N=[N+]=[N-])C1CC(CCCCCC)=C2c1ccccc1` (stereo partly drawn) [Compound 31-exo, (Endo or Exo)-5-hexyl-4-phenyl-3a-(1-phenylvinyl)-1,2,3,3a,6,6a-hexahydropentalen-1-azide], at LRH-1 (setting [2]), the concentration for a half-maximal effect (EC50) came to 2000 nM. Moreover, the “Relative Efficacy” value at LRH-1 is given as 0.45. In addition, on LRH-1 LBD, the ΔTm at 50 µM was less than 1 °C.
